Measured values reported in paper PMC11904221 (EMBO Molecular Medicine, 2025).
≈ marks a conversion by molar mass, not a printed value. Like-named read-outs stand apart in the source and are kept apart here. Where a SMILES comes first, the peptide text is derived from it.

Experiments:
[1] = Time-dependent stability in water and in plasma on storage, LC-MS; assay type: physicochemical; details: read-out: % of area at T=0
Experimental: The standard deviations were below the acceptable values (<15%) showing that the accuracy is correct and compliant with standard quantification protocols. […]
the linearity of the method. […]
for concentrations below 0.5 µM.
The second step of the study consisted to analyse the stability of the peptide in order to evaluate the feasibility of the quantification of APLN-DM in the samples obtained in vivo.
Quantification in the plasma after protein precipitation
Before the injection for LC-MS analysis, the plasmas had to be processed for elimination of major proteins, which can disturb the analysis. Proteins were precipitated by an organic solvent. […]
The second method was adapted from the protocol described by O. Chertov et al. (Proteomics 2004, 4, 1195- […]
1203). […] 7 µl of this solution were […]
added to 70 µl plasma or 70 µl water (control).
10 µl of each sample were mixed to 20 µl water, vortexed, mixed to 45 µl d’acetonitrile + 0.1% trifluoroacetic acid, sonicated, vortexed, centrifuged for 15 minutes. The supernatant was evaporated and the pellet was re-suspended in 30 µl water. The 2 samples (peptide in plasma or in water) were injected in LC-MS according to the conditions previously established.
With this method, the recovery of APLN-DM in the plasma after protein precipitation was sufficient.
The coefficient of variation was acceptable. This method was used for the stability study in the plasma.
7 µl were added to 3 samples […]
of 70 µl plasma or 70 µl water.
Six solutions were obtained:
-W RT : solution in water stored at room temperature
-W 4°C : solution in water stored at 4°C
-W -18°C : solution in water stored at -18°C
-P RT : solution in plasma stored at room temperature
-P 4°C : solution in plasma stored at 4°C
-P -18°C : solution in plasma stored at -18°C. […]
processed for protein extraction (according to the method previously described), and then injected in […]
LC-MS for APLN-DM quantification. For […]
each sample, % were calculated according to the area obtained at T=0 which correspo nd to 100%.

in vivo = details: BALB/c, mouse, ip
Experimental: Pharmacological profile of APLN-DM peptide
Maximal Tolerated Dose (MTD) study of APLN -DM in mice
Six groups comprising six Balb/C mice per group (3 males and 3 females) were assigned to the study. In each gender, one control group (1 Male (M)/1 female (F)) received the reference solution (vehicle) and 5 […]
mg/kg (4M/4F), 2000 mg/kg (5M/5F) and 1500 mg/kg (6M/6F). APLN-DM peptide was administrated via intra-peritoneal (IP) single injection at day 1 followed by observation during 14 days. During the study, mortality, morbidity, general clinical signs and bod y weight were recorded. In the end of the study pathology and organ necropsy examination were performed. Thereby, APLN-DM peptide and vehicle were administered to mice according to Table-1 and their effects were analyzed according to Table-2.
Each test item dose was administrated to 3 female and 3 male mice. The administration was performed IP at a dose volume of 10 ml/kg. Dosing was performed according to Figure-1 and each increase in dose pending on the outcome of the previous dose (results of clinical signs). The lag time between the increasing doses was approximately 48h.
No. (n=) Mouse# Treatment Dose Level administration administratio […]
Table-1. Study design -1. […], […]
Study Day* Procedure Body Weight Clinical Mortality & Organ
Sign Morbidity observation
2-14 - Twice weekly Once -
15 Termination √ √ Gross pathology
Figure 1 - Decisional tree for successive dosing for MTD determination […]
At study termination, body weight (Figure 2 and Figure 3) and gross pathology abnormalities were analyzed in all animals. Main pathological finding were blood clots in intestine and chest cavity. Treatment-related clinical adverse side effects (purple tail, lethargy, decreased motor activity) were observed also in groups treated either with 200, 500, 1000 and 1500 mg/kg. The tail recovered a normal color after 1 hour in all dose groups. […]
abnormalities were detected in all male and female animals from these groups at the scheduled termination […]

[2] = mouse
[3] = pH 7.4, aqueous buffer

For `CSCC[C@H](NC(=O)[C@@H]1CCCN1C(=O)CNC(=O)[C@H](CCCCN)NC(=O)[C@H](Cc1c[nH]cn1)NC(=O)[C@H](CO)NC(=O)[C@H](CC(C)C)NC(=O)[C@H](CCCNC(=N)N)NC(=O)[C@@H]1CCCN1C(=O)[C@H](CCCNC(=N)N)NC(=O)[C@H](CCC(N)=O)NC(=O)[C@H](CO)NC(=O)[C@H](CO)NC(=O)[C@H](Cc1ccccc1)NC(=O)[C@H](CCCCN)NC(=O)[C@H](CO)NC(=O)[C@H](CO)NC(=O)CNC(=O)CNC(=O)[C@H](CCC(N)=O)NC(=O)[C@H](Cc1c[nH]c2ccccc12)NC(=O)[C@@H]1CCCN1C(=O)CNC(=O)[C@@H]1CCCN1C(=O)CNC(=O)[C@H](CC(N)=O)NC(=O)[C@H](CCCNC(=N)N)NC(=O)[C@H](CO)NC(=O)CNC(=O)[C@H](CCCNC(=N)N)NC(=O)[C@@H]1CCCN1C(=O)[C@H](CCC(N)=O)NC(=O)[C@@H](NC(=O)[C@@H](N)CC(C)C)C(C)C)C(=O)N1CCC[C@H]1C(=O)N[C@@H](Cc1ccccc1)C(=O)O` [APLN-DM] (H-LVQPRGSRNGPGPWQGGSSKFSSQRPRLSHKGPMPF-OH), the “% Protein bound, 1st” value (in vitro) was 56.8%, the “% Protein bound, 2nd” value (in vitro) was 52.2% and the “% Recovery, 1st” value (in vitro) was 123%. For the same molecule, the “% Recovery, 2nd” value (in vitro) was 125%, the “% Recovery, Mean” value (in vitro) was 124% and the fraction unbound at 4 h, 1e-05 M (in vitro; human, plasma) was 0.46. The remaining at 2 h ([1]; P 4°C) was 51%, the remaining at 168 h ([1]; P 4°C) was 6% and the remaining at 1 h ([1]; P 4°C: in plasma, 4°C) was 66%. The remaining at 2 h ([1]; P -18°C) was 66%, the remaining at 5 h ([1]; P -18°C) was 114% and the remaining at 24 h ([1]; P -18°C) was 86%. It also gave a remaining at 48 h ([1]; P -18°C) of 97%, a remaining at 72 h ([1]; P -18°C) of 89% and a remaining at 168 h ([1]; P -18°C) of 12%. The remaining at 1 h ([1]; P -18°C: in plasma, -18°C) was 75%, the remaining at 2 h ([1]; P RT) was 17% and the remaining at 5 h ([1]; P RT) was 13%. For the same molecule, the remaining at 24 h ([1]; P RT) was 8%, the remaining at 48 h ([1]; P RT) was 14% and the remaining at 72 h ([1]; P RT) was 7%. For the same molecule, the remaining at 168 h ([1]; P RT) was 22%, the remaining at 1 h ([1]; P RT: in plasma, room temperature) was 21% and the MTD at 336 h (in vivo; female) was 1000 mg/kg. The MTD at 336 h (in vivo; male) was 1500 mg/kg, the “Half-life, 1st” value [2] was 0.645 h and the “Half-life, 2nd” value [2] was 1.867 h. The half-life ([2]; liver microsomes) was greater than 1 h, the microsomal CLint ([2]; liver microsomes) was less than 116 µL/min/mg and the solubility thermodynamic [3] was 187 µM (≈ 734 µg/mL).
